Like-named read-outs stand apart in the source and are kept apart here.

For experiment [1], the system named is C. perfringens spores. The experiment is described as follows: microbe, parasite or virus in culture. The conditions noted are these: Clostridium perfringens, read-out: IC50, inhibition of C. perfringens spore germination.
For experiment [2], the system named is C. perfringens spores. The conditions noted are these: spore germination inhibition.
Experiment [3] concerns C. perfringens spores. It is filed as cell-based, Clostridium perfringens. The conditions noted are these: for effect of added salt on AA pathway response / effect of added salt on BA germination pathway: potassium phosphate or sodium phosphate buffer; for effect of added salt on AA pathway response / effect of added salt on BA germination pathway / effect of added salt on BA pathway: 150 mM salt; for effect of added salt on BA pathway: spores resuspended in sodium phosphate buffer.

Experiment [4] has as its system C. perfringens spores. The class given is cell-based, Clostridium perfringens. The conditions noted are these: for induction of spore germination by bile salt in the presence of amino acids: BA pathway; for triggering of spore germination by detergent: even in the presence of excess L-alanine.
A further experiment concerns C. perfringens strains. The class given is cell-based, Clostridium perfringens.
Experiment [5] has as its system C. perfringens spores. The conditions noted are these: with L-alanine, in place of L-phenylalanine.
Setting [6] is: in the presence of theobromine, strains 1936, 1473, 1882.

In general, IC50 refers to the concentration that gives 50% inhibition. Regarding `COc1nc2ccccc2s1` [MOB, 2-methoxy benzothiazole], the half-maximal inhibitory concentration (IC50) in the experiment on C. perfringens spores [1] worked out at 98 µM. The “inhibitory concentration compared with other analogs” value with C. perfringens spores [2] is “approximately ten times lower than other analogs”.
As for `[Cl-].[Na+]` [NaCl], in the experiment on C. perfringens spores [3], the “effect of added salt on AA pathway response” value is recorded as “did not affect” and the “effect of added salt on BA germination pathway” value was “did not affect”.
For `C[C@H](CCC(=O)NCCS(=O)(=O)O)[C@H]1CC[C@H]2[C@@H]3[C@H](O)C[C@@H]4C[C@H](O)CC[C@]4(C)[C@H]3CC[C@]12C` [taurochenodeoxycholate], the “induction of spore germination by bile salt in the presence of amino acids” value (“induction of spore germination” below) with C. perfringens spores [4] is “induced C. perfringens spore germination”.
For Triton-X-100, the “triggering of spore germination by detergent” value with C. perfringens spores [4] was “Neither detergent was able to trigger”.
For the compound `OC[C@H]1O[C@H](OC[C@H]2O[C@H](O[C@]3(CO)O[C@H](CO)[C@@H](O)[C@@H]3O)[C@H](O)[C@@H](O)[C@@H]2O)[C@H](O)[C@@H](O)[C@H]1O` [raffinose], the “sporulation with the carbon source” value in the experiment with C. perfringens strains (0.5% carbon source in solid medium) was “preferred carbon source”.
As for `O=C([O-])O.[K+]` [potassium bicarbonate], the “effect of added bicarbonate on germination rate” value in the experiment on C. perfringens spores [3] is listed as “increased germination rate”.
Turning to `[Br-].[Na+]` [NaBr], in the experiment with C. perfringens spores [3], the “effect of added salt on AA pathway response” value is reported as “did not affect” and the “effect of added salt on BA germination pathway” value was “did not affect”.
On to `Cn1cnc2c1c(=O)[nH]c(=O)n2C` [theobromine], for which, in the experiment with C. perfringens strains (setting [6]), the “time at which spores could be detected” value is “two days after plating”. In addition, the “time of maximum sporulation levels” value in the experiment with C. perfringens strains (setting [6]) is 5-7 days post-plating. For the same compound, the “effect of theobromine on sporulation level” value is on record as “decreased” with C. perfringens strains (strain 1473), “increased” in the experiment on C. perfringens strains (strain 1882) and “remained unchanged” in the experiment on C. perfringens strains (strain 1936). The “Theobromine, effect on sporulation” value is “Increases sporulation” with C. perfringens strains (strain 1473, inoculum BHI, peptone #3); “Reduces sporulation” in the experiment with C. perfringens strains (strain 1473, inoculum Thioglycollate, peptone #1); “Required for sporulation” in the experiment with C. perfringens strains (strain 1521, inoculum Thioglycollate, peptone #1); “Increases sporulation” in the experiment with C. perfringens strains (strain 1882, inoculum BHI, peptone #2); “No effect on sporulation” in the experiment with C. perfringens strains (strain 1936, inoculum BHI, peptone #1); “Required for sporulation” in the experiment on C. perfringens strains (strain 4064, inoculum BHI, peptone #1). In addition, the “Theobromine, effect on sporulation” value in the experiment with C. perfringens strains (strain 4104, inoculum BHI, peptone #3) is listed as “Required for sporulation”; with C. perfringens strains (strain 4104, inoculum Thioglycollate, peptone #3), “Required for sporulation”; in the experiment on C. perfringens strains (strain 4121, inoculum Thioglycollate, peptone #2), “Required for sporulation”. In the experiment on C. perfringens strains (strains 1936, 1473, 1882), the “effect on sporulation times” value is “reduced sporulation times”. For the same compound, in the experiment on C. perfringens strains (strains 4104, 4064, 1521, 4121, solid media), the “effect of theobromine on sporulation” value was “only sporulated robustly when theobromine was added”.
Consider `C[C@H](CCC(=O)O)[C@H]1CC[C@H]2[C@@H]3[C@H](O)C[C@@H]4C[C@H](O)CC[C@]4(C)[C@H]3CC[C@]12C` [chenodeoxycholate], for which, in the experiment with C. perfringens spores [4] (FIG. 3B), the “induction or inhibition of spore germination in the presence of L-alanine” value (from here on “induction or inhibition”) was “did not induce or inhibit”.
`CCCCCCCCCCCCOS(=O)(=O)[O-].[Na+]` [SDS]: the “triggering of spore germination by detergent” value in the experiment with C. perfringens spores [4] was “Neither detergent was able to trigger”.
On to `C[C@H](CCC(=O)O)[C@H]1CC[C@H]2[C@@H]3[C@H](O)C[C@@H]4C[C@H](O)CC[C@]4(C)[C@H]3C[C@H](O)[C@]12C` [Cholate], for which, in the experiment with C. perfringens spores [4], the “induction or inhibition” value was “did not induce or inhibit”.
On to `C[C@H](CCC(=O)NCCS(=O)(=O)O)[C@H]1CC[C@H]2[C@@H]3CC[C@@H]4C[C@H](O)CC[C@]4(C)[C@H]3C[C@H](O)[C@]12C` [taurodeoxycholate], for which the “induction of spore germination” value in the experiment with C. perfringens spores [4] is “induced C. perfringens spore germination”.
`[Br-].[K+]` [KBr]: in the experiment on C. perfringens spores [3], the “effect of added salt on AA pathway response” value is given as “did not affect” and the “effect of added salt on BA pathway” value is “induced the BA pathway”.
For `[Cl-].[K+]` [KCl] the same measures were “did not affect” and “induced the BA pathway”.
For the compound `O=C([O-])O.[Na+]` [sodium bicarbonate], the “effect of added bicarbonate on germination rate” value with C. perfringens spores [3] is “increased germination rate”.
On to `C[C@H](CCC(=O)NCC(=O)O)[C@H]1CC[C@H]2[C@@H]3[C@H](O)C[C@@H]4C[C@H](O)CC[C@]4(C)[C@H]3C[C@H](O)[C@]12C` [Glycocholate], for which, in the experiment with C. perfringens spores [4], the “induction of spore germination” value is listed as “induced C. perfringens spore germination”.
Turning to `N[C@@H](Cc1ccc(O)cc1)C(=O)O` [L-tyrosine], in the experiment on C. perfringens spores [5], the “germination rate slower than with L-phenylalanine” value is recorded as “more than 50%”.
On to `CSc1nc2ccccc2s1` [2-MTB, 2-methylthiobenzothiazole], for which, in the experiment on C. perfringens spores [1], the IC50 was determined as 74 µM.
Regarding deoxycholate, the “induction or inhibition” value in the experiment with C. perfringens spores [4] (FIG. 3B) is “did not induce or inhibit”.
